Assay results as given in patent US11180504B2 (ORCHID PHARMA LTD., priority 2016, dated 2021).
Values after ≈ are worked out from the molar mass of the structure shown. Where two headings read alike, the source gives them in different places.

Legend:
[1] = system: carbapenemase producing K. pneumoniae; test: MIC by broth micro-dilution (CLSI), carbapenemase producing K. pneumoniae; format: cell-based, Klebsiella pneumoniae
[2] = system: carbapenem sensitive Pseudomonas aeruginosa; test: MIC by broth micro-dilution (CLSI), carbapenem sensitive P. aeruginosa; format: cell-based
[3] = system: methicillin-sensitive Staphylococcus aureus; test: MIC by broth micro-dilution (CLSI), methicillin-sensitive S. aureus; format: cell-based; settings: MSSA S. aureus ATCC29213
[4] = system: extended spectrum β lactamase (ESBL) SHV18 producing Klebsiella pneumoniae; test: MIC by broth micro-dilution (CLSI), ESBL SHV18 producing K. pneumoniae; format: cell-based; settings: Klebsiella pneumoniae, ATCC700603, 22 h, ESBL +ve (SHV-18) K. pneumoniae ATCC700603; read-out: MIC
[5] = system: carbapenem sensitive Escherichia coli; test: MIC by broth micro-dilution (CLSI), carbapenem sensitive E. coli; format: cell-based
[6] = Klebsiella pneumoniae, ATCCBAA1705, KPC-2 K. pneumoniae ATCC BAA-1705, read-out: MIC
[7] = Pseudomonas aeruginosa, ATCC27853, Meropenem susceptible P. aeruginosa ATCC27853, read-out: MIC
[8] = Staphylococcus aureus, ATCC 29213 / MSSA, read-out: MIC
[9] = Escherichia coli, ATCC25922, ESBL −ve E. coli ATCC25922, read-out: MIC
[10] = KPC-2 K. pneumoniae ATCC BAA-1705
[11] = Meropenem susceptible P. aeruginosa ATCC27853

SMILES	MIC [1, 6] [µg/mL]	MIC [2, 7] [µg/mL]	MIC [3, 8] [µg/mL]	MIC [4] [µg/mL]	MIC [5, 9] [µg/mL]	MIC [1, 10] [µg/mL]	MIC [2, 11] [µg/mL]	MIC [3] [µg/mL]	MIC ([5]; ESBL −ve E. coli ATCC25922) [µg/mL]	MIC ([3]; Staphylococcus aureus, ATCC29213|MSSA, read-out: MIC) [µg/mL]
C[C@@H](NC(=O)C[S+]([O-])C(F)F)[C@H]1C(=O)N2C(C(=O)O)=C(S[C@@H]3CN[C@H](C(=O)N(C)C)C3)[C@H](C)[C@H]12 (mixture of isomers) [Example 82]	8	128	8	2	1	–	–	–	–	–
CC(F)C(=O)N[C@H](C)[C@H]1C(=O)N2C(C(=O)O)=C(S[C@@H]3CN[C@H](C(=O)N(C)C)C3)[C@H](C)[C@H]12 (mixture of isomers) [Example 84]	16	128	4	4	1	–	–	–	–	–
C[C@@H](NS(C)(=O)=O)[C@H]1C(=O)N2C(C(=O)O)=C(S[C@@H]3CN[C@H](C(=O)N4CCC(N)C4)C3)[C@H](C)[C@H]12 (stereo in doubt) [Example 362, (4R,5S,6S)-3-((3S,5S)-5-((R)-3-aminopyrrolidine-1-carbonyl)pyrrolidin-3-ylthio)-4-methyl-6-((R)-1-(methylsulfonamido)ethyl)-7-oxo-1-azabicyclo[3.2.0]hept-2-ene-2-carboxylic acid]	4 (≈ 7.97 µM)	4 (≈ 7.97 µM)	8 (≈ 15.9 µM)	4 (≈ 7.97 µM)	0.25 (≈ 0.498 µM)	–	–	–	–	–
C[C@@H](NC(=O)Cc1cccs1)[C@H]1C(=O)N2C(C(=O)O)=C(S[C@@H]3CN[C@H](C(=O)N(C)C)C3)[C@H](C)[C@H]12 [Example 5]	> 128	> 128	8 (≈ 15.8 µM)	> 128	8 (≈ 15.8 µM)	–	–	–	–	–
C[C@@H](NS(C)(=O)=O)[C@H]1C(=O)N2C(C(=O)O)=C(S[C@@H]3CN[C@H](CNS(N)(=O)=O)C3)[C@H](C)[C@H]12 [Example 7]	2 to 4 (≈ 4.02 to 8.04 µM)	32 to 64 (≈ 64.3 to 129 µM)	2 to 8 (≈ 4.02 to 16.1 µM)	2 to 4 (≈ 4.02 to 8.04 µM)	0.5 (≈ 1 µM)	–	–	–	–	–
COc1ccc(S(=O)(=O)N[C@H](C)[C@H]2C(=O)N3C(C(=O)O)=C(S[C@@H]4CN[C@H](C(=O)N(C)C)C4)[C@H](C)C23)cc1OC (stereo partly drawn) [Example 9]	> 128	> 128	8 (≈ 13.7 µM)	> 128	128 (≈ 220 µM)	–	–	–	–	–
CCS(=O)(=O)N[C@H](C)[C@H]1C(=O)N2C(C(=O)O)=C(S[C@@H]3CN[C@H](C(=O)N(C)C)C3)[C@H](C)[C@H]12 [Example 10]	4 (≈ 8.43 µM)	> 128	16 (≈ 33.7 µM)	2 (≈ 4.21 µM)	1 (≈ 2.11 µM)	–	–	–	–	–
C[C@@H](NS(=O)(=O)c1ccccc1)[C@H]1C(=O)N2C(C(=O)O)=C(S[C@@H]3CN[C@H](C(=O)N(C)C)C3)[C@H](C)[C@H]12 [Example 11]	32 (≈ 61.2 µM)	> 128	8 (≈ 15.3 µM)	64 (≈ 122 µM)	4 (≈ 7.65 µM)	–	–	–	–	–
C[C@@H](NS(=O)(=O)c1ccc(F)cc1)[C@H]1C(=O)N2C(C(=O)O)=C(S[C@@H]3CN[C@H](C(=O)N(C)C)C3)[C@H](C)[C@H]12 [Example 12]	32 (≈ 59.2 µM)	> 128	8 (≈ 14.8 µM)	128 (≈ 237 µM)	4 (≈ 7.4 µM)	–	–	–	–	–
CNCC(=O)N[C@H](C)[C@H]1C(=O)N2C(C(=O)O)=C(S[C@@H]3CN[C@H](C(=O)N4C[C@@H](O)[C@H](NC(=N)N)C4)C3)[C@H](C)[C@H]12 [Example 588, (4R,5S,6R)-3-((3S,5S)-5-((3R,4R)-3-guanidino-4-hydroxypyrrolidine-1-carbonyl)pyrrolidin-3-ylthio)-4-methyl-6-((R)-1-(2-(methylamino)acetamido)ethyl)-7-oxo-1-azabicyclo[3.2.0]hept-2-ene-2-carboxylic acid]	4 (≈ 7.24 µM)	4 (≈ 7.24 µM)	32 (≈ 57.9 µM)	–	4 (≈ 7.24 µM)	–	–	–	–	–
C[C@@H](NC(=O)Cn1cnnn1)[C@H]1C(=O)N2C(C(=O)O)=C(S[C@@H]3CN[C@H](CNC(=N)N)C3)[C@H](C)[C@H]12 [Example 589, (4R,5S,6R)-6-((R)-1-(2-(1H-tetrazol-1-yl)acetamido)ethyl)-3-((3S,5S)-5-(guanidinomethyl)pyrrolidin-3-ylthio)-4-methyl-7-oxo-1-azabicyclo[3.2.0]hept-2-ene-2-carboxylic acid]	2 (≈ 4.06 µM)	16 (≈ 32.5 µM)	4 (≈ 8.12 µM)	–	0.5 (≈ 1.02 µM)	–	–	–	–	–
C[C@@H](NC(=O)Cn1cnnn1)[C@H]1C(=O)N2C(C(=O)O)=C(S[C@@H]3CN[C@H](C(=O)N4CC5CNC5C4)C3)[C@H](C)[C@H]12 (stereo partly drawn) [Example 591, (4R,5S,6R)-6-((R)-1-(2-(1H-tetrazol-1-yl)acetamido)ethyl)-3-((3S,5S)-5-(3,6-diazabicyclo[3.2.0]heptane-3-carbonyl)pyrrolidin-3-ylthio)-4-methyl-7-oxo-1-azabicyclo[3.2.0]hept-2-ene-2-carboxylic acid]	–	–	–	–	–	1 (≈ 1.83 µM)	1 (≈ 1.83 µM)	2 (≈ 3.67 µM)	0.25 (≈ 0.458 µM)	–
C[C@@H](NC(=O)Cn1cnnn1)[C@H]1C(=O)N2C(C(=O)O)=C(S[C@@H]3CN[C@H](C(=O)N4C[C@H](CO)[C@@H](NC(=N)N)C4)C3)[C@H](C)[C@H]12 [Example 592, (4R,5S,6R)-6-((R)-1-(2-(1H-tetrazol-1-yl)acetamido)ethyl)-3-((3S,5S)-5-((3R,4S)-3-guanidino-4-diazabicyclo[3.2.0]heptane-3-(hydroxymethyl)pyrrolidine-1-carbonyl)pyrrolidin-3-ylthio)-4-methyl-7-oxo-1-azabicyclo[3.2.0]hept-2-ene-2-carboxylic acid]	0.5 (≈ 0.826 µM)	0.5 (≈ 0.826 µM)	2 (≈ 3.3 µM)	–	0.125 (≈ 0.206 µM)	–	–	–	–	–
C[C@@H](NC(=O)Cn1cnnn1)[C@H]1C(=O)N2C(C(=O)O)=C(Sc3cnn(C[C@@H]4CCNC4)c3)[C@H](C)[C@H]12 [Example 593, (4R,5S,6R)-6-((R)-1-(2-(1H-tetrazol-1-yl)acetamido)ethyl)-4-methyl-7-oxo-3-(1-((R)-pyrrolidin-3-ylmethyl)-1H-pyrazol-4-ylthio)-1-azabicyclo[3.2.0]hept-2-ene-2-carboxylic acid]	32 (≈ 63.8 µM)	128 (≈ 255 µM)	16 (≈ 31.9 µM)	–	1 (≈ 1.99 µM)	–	–	–	–	–
C[C@@H](NC(=O)Cn1cnnn1)[C@H]1C(=O)N2C(C(=O)[O-])=C(Sc3cnn(CC4CC[N+](C)(CCN)CC4)c3)[C@H](C)[C@H]12 (stereo partly drawn) [Example 594, (4R,5S,6R)-6-((R)-1-(2-(1H-tetrazol-1-yl)acetamido)ethyl)-3-(1-((1-(2-aminoethyl)-1-methylpiperidinium-4-yl)methyl)-1H-pyrazol-4-ylthio)-4-methyl-7-oxo-1-azabicyclo[3.2.0]hept-2-ene-2-carboxylate]	> 128	> 128	1 (≈ 1.75 µM)	–	32 (≈ 55.9 µM)	–	–	–	–	–
C[C@@H](NC(=O)Cn1cnnn1)[C@H]1C(=O)N2C(C(=O)[O-])=C(SCc3ccc(-c4cn(CCCN)[n+](C)c4)cc3)[C@H](C)[C@H]12 [Example 596, (4R,5S,6R)-6-((R)-1-(2-(1H-tetrazol-1-yl)acetamido)ethyl)-3-(4-(1-(3-aminopropyl)-2-methyl-1H-pyrazol-2-ium-4-yl)benzylthio)-4-methyl-7-oxo-1-azabicyclo[3.2.0]hept-2-ene-2-carboxylate]	16 (≈ 27.6 µM)	32 (≈ 55.2 µM)	2 (≈ 3.45 µM)	–	1 (≈ 1.73 µM)	–	–	–	–	–
C[C@@H](NC(=O)Cn1cnnn1)[C@H]1C(=O)N2C(C(=O)[O-])=C(Sc3cn(C[C@@H]4CCNC4)[n+](C)c3)[C@H](C)[C@H]12 [Example 597, (4R,5S,6R)-6-((R)-1-(2-(1H-tetrazol-1-yl)acetamido)ethyl)-4-methyl-3-(2-methyl-1-((R)-pyrrolidin-3-ylmethyl)-1H-pyrazol-2-ium-4-ylthio)-7-oxo-1-azabicyclo[3.2.0]hept-2-ene-2-carboxylate]	32 (≈ 62.1 µM)	32 (≈ 62.1 µM)	4 (≈ 7.76 µM)	–	4 (≈ 7.76 µM)	–	–	–	–	–
C[C@@H](NC(=O)Cn1cnnn1)[C@H]1C(=O)N2C(C(=O)[O-])=C(S[C@@H]3CN[C@H](C(=O)N4CCC5C[N+](C)(C)CCC54)C3)[C@H](C)[C@H]12 (stereo partly drawn) [Example 598]	2 (≈ 3.32 µM)	–	–	–	1 (≈ 1.66 µM)	–	16 (≈ 26.6 µM)	–	–	8 (≈ 13.3 µM)
C[C@@H](NC(=O)Cn1cnnn1)[C@H]1C(=O)N2C(C(=O)[O-])=C(S[C@@H]3CN[C@H](C(=O)N4CCC5C[N+](C)(C)CCC54)C3)[C@H](C)[C@H]12 (stereo partly drawn) [Example 599]	–	–	–	–	–	2 (≈ 3.32 µM)	4 (≈ 6.65 µM)	4 (≈ 6.65 µM)	1 (≈ 1.66 µM)	–
C[C@@H](NC(=O)Cn1cnnn1)[C@H]1C(=O)N2C(C(=O)O)=C(CN3C[C@H](NC(=N)N)[C@@H](O)C3)[C@H](C)[C@H]12 [Example 600, (4S,5R,6R)-6-((R)-1-(2-(1H-tetrazol-1-yl)acetamido)ethyl)-3-(((3S,4S)-3-guanidino-4-hydroxypyrrolidin-1-yl)methyl)-4-methyl-7-oxo-1-azabicyclo[3.2.0]hept-2-ene-2-carboxylic acid]	4 (≈ 8.39 µM)	16 (≈ 33.6 µM)	0.5 (≈ 1.05 µM)	–	0.5 (≈ 1.05 µM)	–	–	–	–	–
C[C@@H](NC(=O)Cn1cnnn1)[C@H]1C(=O)N2C(C(=O)O)=C(S[C@@H]3CN[C@H](C(=O)N4CCC5CNCCC54)C3)C[C@H]12 (stereo partly drawn) [Example 601, (5R,6R)-6-((R)-1-(2-(1H-tetrazol-1-yl)acetamido)ethyl)-3-((3S,5S)-5-(octahydro-1H-pyrrolo[3,2-c]pyridine-1-carbonyl)pyrrolidin-3-ylthio)-7-oxo-1-azabicyclo[3.2.0]hept-2-ene-2-carboxylic acid]	64 (≈ 114 µM)	128 (≈ 229 µM)	2 (≈ 3.57 µM)	–	2 (≈ 3.57 µM)	–	–	–	–	–
